ChEMBL document CHEMBL1201862, “PubChem BioAssay data set” (2004)
Active and inactive are the calls of the source. For most assays here, no stated cut-off is given here; in the data, actives have a measured EC50 and inactives only a lower limit.

Assays:
[1] = inhibitors of firefly luciferase expression or activity, dose response, H4 neuroglioma cells, luminescence (AID 1990); format: functional, cell-based
[2] = Luminescence Cell-Based Dose Response HTS to Identify Inhibitors of 5'UTR Stem-Loop Driven Prion Protein mRNA Translation in H4 Neuroglioblastoma Cells. [Related pubchem assays: 1827 (Project Summary), 1813 (Primary HTS)]; format: functional
[3] = inhibitors of SNCA 5'UTR-driven reporter translation, confirmation, H4 neuroglioma cells, luminescence (AID 1988); format: functional, cell-based
[4] = Luminescence Cell-Based Dose Confirmation HTS to Identify Activators of 5'UTR Stem-Loop Driven Alpha-Synuclein mRNA Translation in H4 Neuroglioblastoma Cells. [Related pubchem assays: 1829 (Project Summary), 1814 (Primary HTS)]; format: functional
[5] = Luminescence Cell-Based Dose Response HTS to Identify Activators of Luciferase Translation or Activity in H4 […] Cells. [Related pubchem assays: 1829 (Project Summary), 1814 (Primary HTS)]; format: functional
H4 = experiment: Luminescence Cell-Based Dose Response HTS to Identify Activators of 5'UTR Stem-Loop Driven Prion Protein mRNA Translation in H4 Neuroglioblastoma Cells. [Related pubchem assays: 1829 (Project Summary), 1814 (Primary HTS)]; format: functional; settings: Homo sapiens
[6] = target: T1, Replicative DNA helicase DnaB (Mycobacterium tuberculosis, UniProt P9WMR3); experiment: DnaB intein splicing inhibitors, dose response, biochemical, cell-free fluorescence (AID 449749); format: functional
T1 sequence (P9WMR3 whole entry): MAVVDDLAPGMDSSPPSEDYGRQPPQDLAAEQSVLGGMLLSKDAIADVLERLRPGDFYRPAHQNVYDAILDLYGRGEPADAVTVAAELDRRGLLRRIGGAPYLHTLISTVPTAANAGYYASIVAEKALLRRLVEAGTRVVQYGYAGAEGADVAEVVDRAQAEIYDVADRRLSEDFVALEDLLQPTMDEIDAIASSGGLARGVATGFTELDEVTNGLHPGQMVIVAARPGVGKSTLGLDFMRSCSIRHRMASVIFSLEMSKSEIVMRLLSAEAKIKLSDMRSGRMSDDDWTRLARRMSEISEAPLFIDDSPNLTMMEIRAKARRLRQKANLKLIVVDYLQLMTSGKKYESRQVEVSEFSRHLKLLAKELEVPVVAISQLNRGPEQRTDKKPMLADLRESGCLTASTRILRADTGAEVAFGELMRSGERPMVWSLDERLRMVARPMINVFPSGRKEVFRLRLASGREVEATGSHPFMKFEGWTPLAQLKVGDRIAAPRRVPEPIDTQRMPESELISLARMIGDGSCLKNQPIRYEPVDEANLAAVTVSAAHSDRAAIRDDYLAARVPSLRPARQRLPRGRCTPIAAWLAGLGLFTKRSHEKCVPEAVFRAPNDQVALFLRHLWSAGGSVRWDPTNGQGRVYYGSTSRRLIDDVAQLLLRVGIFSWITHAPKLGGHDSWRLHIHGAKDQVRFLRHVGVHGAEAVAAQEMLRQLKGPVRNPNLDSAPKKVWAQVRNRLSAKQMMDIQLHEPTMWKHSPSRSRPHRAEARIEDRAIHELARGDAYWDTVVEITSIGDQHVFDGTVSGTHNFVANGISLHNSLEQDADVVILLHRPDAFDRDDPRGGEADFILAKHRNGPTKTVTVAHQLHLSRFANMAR

Protein RecA = target: T2, Protein RecA (Mycobacterium tuberculosis, UniProt P9WHJ3); experiment: Fluorescence Cell-Free Homogeneous Dose Retest to Identify Inhibitors of RecA-Intein Splicing Activity. [Related pubchem assays (depositor defined):AID2097, AID2223, AID489010, AID492950]; format: functional
T2 sequence (P9WHJ3 whole entry): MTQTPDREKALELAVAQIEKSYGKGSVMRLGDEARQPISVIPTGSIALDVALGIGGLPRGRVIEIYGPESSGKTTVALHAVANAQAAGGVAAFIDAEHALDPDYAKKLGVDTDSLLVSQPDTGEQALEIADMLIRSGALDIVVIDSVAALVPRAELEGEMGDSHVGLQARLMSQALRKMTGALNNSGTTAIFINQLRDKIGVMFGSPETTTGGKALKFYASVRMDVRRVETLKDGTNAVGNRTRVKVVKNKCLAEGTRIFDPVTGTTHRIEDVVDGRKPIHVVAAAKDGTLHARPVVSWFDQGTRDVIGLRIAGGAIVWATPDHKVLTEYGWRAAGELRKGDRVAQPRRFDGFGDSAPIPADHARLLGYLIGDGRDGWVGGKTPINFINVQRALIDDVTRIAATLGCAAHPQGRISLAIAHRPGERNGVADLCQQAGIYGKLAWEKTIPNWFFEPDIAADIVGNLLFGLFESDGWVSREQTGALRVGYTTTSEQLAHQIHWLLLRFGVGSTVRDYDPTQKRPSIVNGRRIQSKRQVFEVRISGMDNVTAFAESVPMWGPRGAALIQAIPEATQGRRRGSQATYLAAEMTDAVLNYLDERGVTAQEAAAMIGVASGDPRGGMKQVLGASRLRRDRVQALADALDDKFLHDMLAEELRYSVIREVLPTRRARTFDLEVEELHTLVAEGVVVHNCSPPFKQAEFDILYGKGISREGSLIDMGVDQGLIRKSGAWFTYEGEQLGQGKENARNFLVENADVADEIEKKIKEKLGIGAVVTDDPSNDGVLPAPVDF

[7] = microbe, parasite or virus in culture; format: functional; settings: Mycobacterium tuberculosis
Cytochrome P450 2D6 = Cytochrome P450 2D6 (Homo sapiens, UniProt P10635);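 further: CYP2D6 member of a cytochrome P450 panel assay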
Chain of Cytochrome P450 2D6 (P10635 whole entry): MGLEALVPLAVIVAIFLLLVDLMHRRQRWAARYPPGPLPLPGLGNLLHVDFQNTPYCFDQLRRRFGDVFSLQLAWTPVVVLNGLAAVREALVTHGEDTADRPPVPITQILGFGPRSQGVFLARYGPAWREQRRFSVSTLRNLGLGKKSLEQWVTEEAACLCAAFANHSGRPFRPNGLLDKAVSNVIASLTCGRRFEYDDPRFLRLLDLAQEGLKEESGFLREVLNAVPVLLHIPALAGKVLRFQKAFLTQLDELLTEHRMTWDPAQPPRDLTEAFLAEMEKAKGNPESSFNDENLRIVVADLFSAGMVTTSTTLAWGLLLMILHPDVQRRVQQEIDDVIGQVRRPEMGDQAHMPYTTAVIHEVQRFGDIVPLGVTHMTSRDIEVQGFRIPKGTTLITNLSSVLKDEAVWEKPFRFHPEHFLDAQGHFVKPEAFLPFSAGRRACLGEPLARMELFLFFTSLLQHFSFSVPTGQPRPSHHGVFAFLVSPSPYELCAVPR

Cytochrome P450 3A4 = Cytochrome P450 3A4 (Homo sapiens, UniProt P08684);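 further: CYP3A4 tested as one member of a cytochrome P450 panel screen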
Chain of Cytochrome P450 3A4 (P08684 whole entry): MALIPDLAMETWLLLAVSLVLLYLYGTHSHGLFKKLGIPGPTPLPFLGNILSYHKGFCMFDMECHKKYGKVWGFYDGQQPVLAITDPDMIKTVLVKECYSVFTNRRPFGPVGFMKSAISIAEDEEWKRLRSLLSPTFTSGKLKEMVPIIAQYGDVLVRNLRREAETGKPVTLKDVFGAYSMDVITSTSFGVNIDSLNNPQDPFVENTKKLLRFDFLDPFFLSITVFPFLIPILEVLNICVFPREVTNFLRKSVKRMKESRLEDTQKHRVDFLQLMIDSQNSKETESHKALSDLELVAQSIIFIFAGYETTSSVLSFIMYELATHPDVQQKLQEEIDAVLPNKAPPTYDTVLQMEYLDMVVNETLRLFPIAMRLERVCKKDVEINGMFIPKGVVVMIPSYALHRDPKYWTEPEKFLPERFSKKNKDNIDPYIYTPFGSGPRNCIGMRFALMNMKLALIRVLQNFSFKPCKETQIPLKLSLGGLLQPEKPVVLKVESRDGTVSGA

Cytochrome P450 2C9 = Cytochrome P450 2C9 (Homo sapiens, UniProt P11712)
Chain of Cytochrome P450 2C9 (P11712 whole entry): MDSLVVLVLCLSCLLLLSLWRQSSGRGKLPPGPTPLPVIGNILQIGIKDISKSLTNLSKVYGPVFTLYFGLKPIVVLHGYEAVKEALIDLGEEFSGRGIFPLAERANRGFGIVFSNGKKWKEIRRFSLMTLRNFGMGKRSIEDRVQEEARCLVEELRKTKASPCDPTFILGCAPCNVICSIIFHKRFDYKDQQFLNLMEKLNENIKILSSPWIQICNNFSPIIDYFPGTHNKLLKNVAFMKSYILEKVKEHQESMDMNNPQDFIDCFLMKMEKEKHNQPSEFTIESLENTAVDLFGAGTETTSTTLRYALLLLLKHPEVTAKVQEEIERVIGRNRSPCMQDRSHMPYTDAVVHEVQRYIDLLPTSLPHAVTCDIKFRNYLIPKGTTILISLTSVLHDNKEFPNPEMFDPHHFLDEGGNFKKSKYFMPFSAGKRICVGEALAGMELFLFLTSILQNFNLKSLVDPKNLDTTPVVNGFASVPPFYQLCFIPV

[8] = NIH-3T3 fibroblast cytotoxicity, dose response, cytotoxicity control, cell-based, fluorescence, Alamar Blue, secondary assay (AID 2327); format: functional;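 further: NIH-3T3 mouse fibroblasts cultured with fluconazole at 8 µg/mL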
[9] = C. albicans growth with fluconazole, confirmation, fluorescence, retest (AID 2467); format: functional, cell-based
[10] = inhibitors of intracellular T. cruzi replication, confirmation, NIH3T3 host cells, beta-gal luminescence (AID 2044); format: functional, cell-based;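 further: intracellular parasites grown in NIH/3T3 mouse fibroblasts as host cells; luminescent beta-galactosidase reporter signal from transgenic T. cruzi replicating inside host cells; inhibitors lower the luminescence signal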
[11] = cytotoxicity toward NIH3T3 fibroblasts, dose response, counter-screen, cell-based, ATP luminescence, mouse fibroblasts (AID 2010); format: functional;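 further: cells exposed to compound for about 90 hours before reading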

Cc1nn(Cc2ccccc2Cl)c(C)c1NC(=O)CCCn1nc(C)c([N+](=O)[O-])c1C
EC50 [1]: 21 µM (active)
EC50 [2]: > 120 µM (not active)
EC50 [3]: > 120 µM (not active)

CC(=O)c1cccc(NC(=O)CN2C(=O)COc3ccc(S(=O)(=O)N4CCOCC4)cc32)c1
EC50 [1]: > 120 µM (not active)
EC50 [2]: > 120 µM (not active)
EC50 [3]: > 120 µM (not active)

COc1ccc2oc(=O)c(-c3nc4ccccc4o3)cc2c1
EC50 [4]: 3.5 µM (active)
EC50 [5]: 17.2 µM (active)
EC50 (H4): 24.1 µM (active)

NC(=O)[C@H](Cc1cc2ccccc2s1)NC(=O)[C@@H]1CC2(CC(c3cccc(NC(=O)[C@@H]4CCC(=O)N4)c3)=NO2)CN1C(=O)/C=C/c1c(F)cccc1Cl (stereo partly specified)
AC50 [6]: 20 µM (active)
EC50 (Protein RecA): 168 µM (active)

COc1ccc(OC)c(NC(=O)CN2C(=O)CSc3ccc(S(=O)(=O)N4CCCC4)cc32)c1
EC50 [1]: > 120 µM (not active)
EC50 [2]: > 120 µM (not active)
EC50 [3]: > 120 µM (not active)

COc1ccc(Cl)cc1N(CC(=O)Nc1ccccc1C(=O)NCc1ccco1)S(C)(=O)=O
EC50 [1]: > 120 µM (not active)
EC50 [2]: > 120 µM (not active)
EC50 [3]: > 120 µM (not active)

CC1CCCC2(C1)N=C(S)c1c(sc3c1CCCC3)N2 (stereo unspecified)
EC50 [4]: > 120 µM (not active)
EC50 [5]: > 120 µM (not active)
EC50 (H4): > 120 µM (not active)

N#Cc1ccc(-c2ccc(F)cc2)nc1Oc1ccc(F)cc1
EC50 [1]: > 120 µM (not active)
EC50 [2]: 22.6 µM (active)
EC50 [3]: > 120 µM (not active)

CCOP(=O)(OCC)c1nc(-c2ccc(Cl)cc2Cl)oc1N1CCCCC1
EC50 [1]: > 120 µM (not active)
EC50 [2]: > 120 µM (not active)
EC50 [3]: 20.3 µM (active)

O=C(O)c1cc(NN=C2CCN(Cc3ccccc3)CC2)ccc1Cl
EC50 [4]: > 120 µM (not active)
EC50 [5]: 22.9 µM (active)
EC50 (H4): 18.7 µM (active)

Brc1ccc(C2=NC(Cc3ccccc3)CO2)cc1 (stereo unspecified)
EC50 [4]: 3.58 µM (active)
EC50 [5]: 3.81 µM (active)
EC50 (H4): 7.48 µM (active)

O=C(COc1ccc(Oc2ccccc2)cc1)NCc1cn2ccccc2n1
EC50 [1]: 12.7 µM (active)
EC50 [2]: 14.8 µM (active)
EC50 [3]: 8.5 µM (active)

OCc1ccc[n+](/C(C([S-])=Nc2ccc(SC(F)F)cc2)=C(/O)c2ccc(Cl)s2)c1
EC50 [4]: 13.4 µM (active)
EC50 [5]: 14.2 µM (inconclusive)
EC50 (H4): 18.2 µM (active)

COc1ccccc1-n1c2nc3ccccc3nc2c2c(=O)n(-c3cc(C)cc(C)c3)cnc21
EC50 [1]: > 120 µM (not active)
EC50 [2]: 0.528 µM (active)
EC50 [3]: > 120 µM (not active)

COc1ccc(/C=C2/C(=O)N(c3ccccc3)N=C2C)cc1OC
AC50 [6]: 3.78 µM (active)
EC50 (Protein RecA): 1.46 µM (active)

Cc1ccc(-c2ccc(NC(=O)C3C4C=CC(C4)C3C(=O)O)cc2)o1 (stereo unspecified)
EC50 [4]: 2.07 µM (active)
EC50 [5]: 33.5 µM (active)
EC50 (H4): > 120 µM (not active)

Cc1ccccc1Nc1nc(N)nc(COC(=O)c2ccccc2)n1
EC50 [4]: 40.5 µM (active)
EC50 [5]: 25.1 µM (active)
EC50 (H4): 25.7 µM (active)

O=C(C1CCN(c2nc(-c3ccccc3)nc3c2CCC3)CC1)N1CCCC1
EC50 [1]: > 120 µM (not active)
EC50 [2]: 24.7 µM (active)
EC50 [3]: 16.7 µM (active)

O=C(C1=C[C@@H](c2csc3ccccc23)C[C@@H](OCc2ccc(CO)cc2)O1)N1CCN(Cc2ccc3c(c2)OCO3)CC1
EC50 [1]: 11.3 µM (active)
EC50 [2]: > 120 µM (not active)
EC50 [3]: 9.17 µM (active)

O=C(NCc1nnnn1-c1ccc(F)cc1)c1ccc([N+](=O)[O-])o1
EC50 [4]: 8.58 µM (active)
EC50 [5]: > 60 µM (not active)
EC50 (H4): 29 µM (active)
CC50 [7]: 19.3 µM (active)

CN1C2=CC=CC=CC2=[N+](C)C12C([N+](=O)[O-])=CC(=[N+]([O-])[O-])C=C2[N+](=O)[O-] (stereo unspecified)
EC50 [4]: > 120 µM (not active)
EC50 [5]: > 120 µM (not active)
EC50 (H4): > 120 µM (not active)

COc1cc(C(=O)CSc2nnc(-c3ccc(O)cc3)n2CC2CCCO2)ccc1NC(C)=O (stereo unspecified)
AC50 [6]: > 380 µM (inactive)
EC50 (Protein RecA): > 380 µM (inactive)

Cn1c(N)c(-c2nc3cccnc3n2C)sc1=S
EC50 [4]: > 120 µM (not active)
EC50 [5]: 9.72 µM (active)
EC50 (H4): > 120 µM (not active)

CC(=O)N(CCC(Cc1ccccc1)c1ccc2c(c1)OCO2)Cc1ccccc1F (stereo unspecified)
AC50 [6]: 3.39 µM (active)
EC50 (Protein RecA): 5.78 µM (active)

Cc1nc(S(=O)(=O)N(C)Cc2ccccc2)c(C#N)c(C)c1Cl
EC50 [4]: 5.83 µM (active)
EC50 [5]: 60.4 µM (active)
EC50 (H4): > 120 µM (not active)

Cc1ccc2c(c1)c1c(n2CC(O)CN2CCCCCC2)CCCC1 (stereo unspecified)
AC50 [6]: > 380 µM (inactive)
EC50 (Protein RecA): > 380 µM (inactive)

O=C(CN1C(=O)S/C(=C\c2ccc(O)cc2)C1=O)c1ccccc1
EC50 [4]: 6.38 µM (active)
EC50 [5]: 6.77 µM (active)
EC50 (H4): 26 µM (active)

COC(=O)COc1ccc(-c2nccc(-c3ccccn3)n2)cc1
EC50 [1]: < 0.1 µM (active)
EC50 [2]: 7.98 µM (active)
EC50 [3]: 0.159 µM (active)

CN1CC[C@@]2(CCCN(C(=O)c3ccco3)C2)C1
AC50 (Cytochrome P450 2D6): 20 µM (inconclusive)
AC50 (Cytochrome P450 3A4): 20 µM (inconclusive)

O=C(CSCc1cc(O)n[nH]1)Nc1ccc(F)cc1
AC50 [6]: 4.04 µM (active)
EC50 (Protein RecA): 1.74 µM (active)

CC(NC(=O)Cc1ccc(F)cc1)c1ccccc1 (stereo unspecified)
AC50 (Cytochrome P450 2D6): 15.8 µM (inconclusive)
AC50 (Cytochrome P450 3A4): 25.1 µM (inconclusive)
AC50 (Cytochrome P450 2C9): 10 µM (inconclusive)

Cc1nn(-c2ccccc2)c(N2CCCC2)c1/C=N/NC(=O)c1ccccc1O
EC50 [8]: > 150 µM (inactive)
EC50 [1]: 29.2 µM (active)
EC50 [2]: > 120 µM (not active)
EC50 [3]: 27.3 µM (active)
EC50 [9]: > 38 µM (not active)

O=C(NNC(=O)c1ccc([N+](=O)[O-])o1)c1ccccc1
EC50 [10]: 0.13 µM (active)
EC50 [11]: > 60 µM (not active)
AC50 [6]: 23.5 µM (active)
EC50 (Protein RecA): 13.5 µM (active)
